Data taken from patent US20200361871A1 (Enterprise Therapeutics Ltd., priority 2018, published 2020).

Molecular target: human TMEM16A (TMEM16Aabc variant) (Homo sapiens, UniProt Q5XXA6, DEL476-501, form not given)
Experiment: Automated whole-cell patch clamp (Qpatch) TMEM16A potentiator assay in FRT cells stably expressing human TMEM16A
Format: cell-based
Details: for % Potentiation @ 3.33 μM Avg: 3.33 μM solution of test compound, percentage increase of baseline TMEM16A current; for EC50: calculated EC50, Qpatch TMEM16A current at +70 mV
Summary of the method: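 Potentiation was read as the rise in peak +70 mV current over baseline (%), from cumulative 5-min additions of compound. Recordings used whole-cell automated patch of FRT cells stably carrying human TMEM16Aabc, with pipette Ca2+ buffered to give ~20% maximal current. EC50 and efficacy came from concentration-response fits.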

Sequence of human TMEM16A (TMEM16Aabc variant) (Q5XXA6 with tags, fused parts or gaps DEL476-501): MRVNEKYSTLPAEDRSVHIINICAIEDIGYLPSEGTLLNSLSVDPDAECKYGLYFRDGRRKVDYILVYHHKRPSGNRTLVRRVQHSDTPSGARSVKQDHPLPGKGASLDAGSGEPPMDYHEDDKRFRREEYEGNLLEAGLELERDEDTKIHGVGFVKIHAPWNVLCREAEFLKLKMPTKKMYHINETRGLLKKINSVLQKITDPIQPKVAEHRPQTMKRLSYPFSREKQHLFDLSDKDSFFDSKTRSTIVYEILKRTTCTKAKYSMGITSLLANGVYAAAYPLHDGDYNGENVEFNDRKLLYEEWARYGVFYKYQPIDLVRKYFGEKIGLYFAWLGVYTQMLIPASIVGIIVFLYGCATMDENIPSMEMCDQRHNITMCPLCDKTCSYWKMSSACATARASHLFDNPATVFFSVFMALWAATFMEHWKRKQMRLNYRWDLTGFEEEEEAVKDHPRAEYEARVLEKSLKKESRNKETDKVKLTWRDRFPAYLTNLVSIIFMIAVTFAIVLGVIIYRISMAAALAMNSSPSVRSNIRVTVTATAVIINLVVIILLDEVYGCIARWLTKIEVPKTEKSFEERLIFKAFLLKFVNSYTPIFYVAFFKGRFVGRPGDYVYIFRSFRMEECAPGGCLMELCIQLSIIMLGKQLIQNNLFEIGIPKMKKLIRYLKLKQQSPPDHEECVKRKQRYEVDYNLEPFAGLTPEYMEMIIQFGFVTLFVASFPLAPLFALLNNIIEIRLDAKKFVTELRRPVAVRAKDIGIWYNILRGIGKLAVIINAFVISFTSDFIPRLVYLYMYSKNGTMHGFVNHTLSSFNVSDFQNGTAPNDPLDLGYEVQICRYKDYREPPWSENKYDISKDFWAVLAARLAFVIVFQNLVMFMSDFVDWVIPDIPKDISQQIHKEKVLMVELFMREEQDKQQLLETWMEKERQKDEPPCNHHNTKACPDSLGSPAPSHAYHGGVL

Row | Compound | % Potentiation @ 3.33 μM Avg | EC50
1 | C[C@H](NC(=O)Nc1ccnc(C(=O)NC(C)(C)C)c1)c1ccccc1 [Example 64.4, N-tert-Butyl-4-[[(1S)-1-phenylethyl]carbamoylamino]pyridine-2-carboxamide] | 2% | –
2 | CC(C)(C)NC(=O)c1cc(NC(=O)NCc2ccccc2Cl)ccn1 [Example 64.5, N-tert-Butyl-4-[(2-chlorophenyl)methylcarbamoylamino]pyridine-2-carboxamide] | 143% | 450 nM
3 | CC(C)(C)NC(=O)c1cc(NC(=O)Nc2c[nH]c3ccccc23)ccn1 [Example 64.6, N-tert-butyl-4-(1H-indol-3-ylcarbamoylamino)pyridine-2-carboxamide] | 0% | –
4 | CC(C)(C)NC(=O)c1cc(NC(=O)NCc2cccc(Cl)c2)ccn1 [Example 64.7, N-tert-Butyl-4-[(3-chlorophenyl)methylcarbamoylamino]pyridine-2-carboxamide] | 83% | –
5 | CC(C)(C)NC(=O)c1cc(NC(=O)NCc2ccc(Cl)cc2)ccn1 [Example 64.8, N-tert-butyl-4-[(4-chlorophenyl)methylcarbamoylamino]pyridine-2-carboxamide] | 97% | –
6 | CC(C)(C)NC(=O)c1cc(NC(=O)Nc2ccccc2O)ccn1 [Example 65, N-tert-Butyl-4-[(2-hydroxyphenyl)carbamoylamino]pyridine-2-carboxamide] | 55% | –
7 | COc1ccccc1CNC(=O)Nc1ccnc(C(=O)NC(C)(C)C)c1 [Example 65.1, N-tert-Butyl-4-[(2-methoxyphenyl)methylcarbamoylamino]pyridine-2-carboxamide] | 75% | 470 nM
8 | CC(C)(C)NC(=O)c1cc(NC(=O)NCc2ccccc2O)ccn1 [Example 65.2, N-tert-Butyl-4-[(2-hydroxyphenyl)methylcarbamoylamino]pyridine-2-carboxamide] | 73% | 480 nM
9 | CC(C)(C)NC(=O)c1cc(NC(=O)NCc2cccc(O)c2)ccn1 [Example 65.3, N-tert-Butyl-4-[(3-hydroxyphenyl)methylcarbamoylamino]pyridine-2-carboxamide] | 33% | –
10 | CC(C)(C)NC(=O)c1cc(NC(=O)NCc2ccc(O)cc2)ccn1 [Example 65.4, N-tert-Butyl-4-[(4-hydroxyphenyl)methylcarbamoylamino]pyridine-2-carboxamide] | 10% | –
11 | CC(O)c1ccc(O)c(CC(=O)Nc2ccnc(C(=O)NC(C)(C)C)c2)c1 (stereo not shown) [Example 66, N-tert-Butyl-4-[[2-[2-hydroxy-5-(1-hydroxyethyl)phenyl]acetyl]amino]pyridine-2-carboxamide] | 130% | –
12 | CC(NCC(F)(F)F)c1ccc(O)c(CC(=O)Nc2ccnc(C(=O)NC(C)(C)C)c2)c1 (stereo not shown) [Example 67, N-tert-Butyl-4-[[2-[2-hydroxy-5-[1-(2,2,2-trifluoroethylamino)ethyl]phenyl]acetyl]amino]pyridine-2-carboxamide] | 158% | 1100 nM
13 | CC(C)(C)NC(=O)c1cc(NC(=O)Cc2cccc(CC#N)c2)ccn1 [Example 68, N-tert-Butyl-4-[[2-[3-(cyanomethyl)phenyl]acetyl]amino]pyridine-2-carboxamide] | 39% | –
14 | COCc1cccc(CC(=O)Nc2ccnc(C(=O)NC(C)(C)C)c2)c1 [Example 69, N-tert-Butyl-4-[[2-[3-(methoxymethyl)phenyl]acetyl]amino]pyridine-2-carboxamide] | 47% | –
15 | CC(C)(C)NC(=O)c1cc(NC(=O)Cc2cc(CN3CCOCC3)ccc2O)ccn1 [Example 70, N-tert-Butyl-4-[[2-[2-hydroxy-5-(morpholinomethyl)phenyl]acetyl]amino]pyridine-2-carboxamide] | 138% | –
16 | N#CC1(NC(=O)c2cccc(NC(=O)Cc3cc(Cl)ccc3O)c2)CCOC1 (stereo not shown) [Example 71, 3-[[2-(5-Chloro-2-hydroxy-phenyl)acetyl]amino]-N-(3-cyanotetrahydrofuran-3-yl)benzamide] | 162% | –
17 | CC1(NC(=O)c2cccc(NC(=O)Cc3cc(Cl)ccc3O)c2)CCCCC1 [Example 71.1, 3-[[2-(5-Chloro-2-hydroxy-phenyl)acetyl]amino]-N-(1-methylcyclohexyl)benzamide] | 256% | 250 nM
18 | O=C(Cc1cc(F)ccc1O)Nc1ccnc(C(=O)NC2(CO)CCOC2)c1 (stereo not shown) [Example 72, 4-[[2-(5-Fluoro-2-hydroxy-phenyl)acetyl]amino]-N-[3-(hydroxymethyl)tetrahydrofuran-3-yl]pyridine-2-carboxamide] | 53% | –

Row | Compound | % Potentiation @ 3.33 μM Avg | EC50
19 | COCC(C)(CO)NC(=O)c1cc(NC(=O)Cc2cc(Cl)ccc2O)ccn1 (stereo not shown) [Example 73, 4-[[2-(5-Chloro-2-hydroxy-phenyl)acetyl]amino]-N-[1-(hydroxymethyl)-2-methoxy-1-methyl-ethyl]pyridine-2-carboxamide] | 196% | 310 nM
20 | CC#CC(C)(C)NC(=O)c1cc(NC(=O)Cc2cc(Cl)ccc2O)ccn1 [Example 73.1, 4-[[2-(5-Chloro-2-hydroxy-phenyl)acetyl]amino]-N-(1,1-dimethylbut-2-ynyl) pyridine-2-carboxamide] | 389% | 280 nM
21 | C#CC(C)(C)NC(=O)c1cccc(NC(=O)Cc2cc(Cl)ccc2O)c1 [Example 74, 3-[[2-(5-Chloro-2-hydroxy-phenyl)acetyl]amino]-N-(1,1-dimethylprop-2-ynyl)benzamide] | 337% | 180 nM
22 | O=C(Cc1cc(Cl)ccc1O)Nc1cccc(C(=O)NC2(CO)CCOC2)c1 (stereo not shown) [Example 74.1, 3-[[2-(5-Chloro-2-hydroxy-phenyl)acetyl]amino]-N-[3-(hydroxymethyl)tetra hydrofuran-3-yl]benzamide] | 49% | –
23 | CC(C)(C)NC(=O)c1cc(NC(=O)Cc2cc(CCCO)ccc2O)ccn1 [Example 75, N-tert-Butyl-4-[[2-[2-hydroxy-5-(3-hydroxypropyl)phenyl]acetyl]amino]pyridine-2-carboxamide] | 34% | –
24 | CC1(NC(=O)c2cc(NC(=O)Cc3cc(Cl)c(F)cc3O)ccn2)CCC1 [Example 76, 4-[[2-(5-Chloro-4-fluoro-2-hydroxy-phenyl)acetyl]amino]-N-(1-methylcyclobutyl)pyridine-2-carboxamide] | 366% | 220 nM
25 | C#CC(C)(C)NC(=O)c1cc(NC(=O)Cc2cc(F)ccc2F)ccn1 [Example 77, 4-[[2-(2,5-Difluorophenyl)acetyl]amino]-N-(1,1-dimethylprop-2-ynyl)pyridine-2-carboxamide] | 139% | 410 nM
26 | O=C(Cc1cc(F)ccc1F)Nc1ccnc(C(=O)NC23CCC(F)(C2)C3)c1 [Example 77.1, 4-[[2-(2,5-Difluorophenyl)acetyl]amino]-N-(4-fluoro-1-bicyclo[2.1.1]hexanyl) pyridine-2-carboxamide] | 151% | 540 nM
27 | C#CC(C)(C)NC(=O)c1cc(NC(=O)Cc2ccc(Cl)cc2O)ccn1 [Example 78, 4-[[2-(4-Chloro-2-hydroxy-phenyl)acetyl]amino]-N-(1,1-dimethylprop-2-ynyl)pyridine-2-carboxamide] | 98% | 20 nM
28 | C#CC(C)(C)NC(=O)c1cc(NC(=O)Cc2ccc(C(F)(F)F)cc2O)ccn1 [Example 78.1, N-(1,1-Dimethylprop-2-ynyl)-4-[[2-[2-hydroxy-4-(trifluoromethyl)phenyl]acetyl]amino]pyridine-2-carboxamide] | 238% | 50 nM
29 | C#CC(C)(C)NC(=O)c1cc(NC(=O)Cc2cc(C(F)(F)F)ccc2O)ccn1 [Example 78.2, N-(1,1-Dimethylprop-2-ynyl)-4-[[2-[2-hydroxy-5-(trifluoromethyl)phenyl]acetyl]amino]pyridine-2-carboxamide] | 86% | 20 nM
30 | C#CC(C)(C)NC(=O)c1cc(NC(=O)CC2CCOc3ccccc32)ccn1 (stereo not shown) [Example 79, 4-[(2-Chroman-4-ylacetyl)amino]-N-(1,1-dimethylprop-2-ynyl)pyridine-2-carboxamide] | 60% | –
31 | C#CC(C)(C)NC(=O)c1cc(NC(=O)Cc2c(C)nn(C(C)C)c2C)ccn1 [Example 79.1, N-(1,1-Dimethylprop-2-ynyl)-4-[[2-(1-isopropyl-3,5-dimethyl-pyrazol-4-yl)acetyl]amino]pyridine-2-carboxamide] | 45% | –
32 | C#CC(C)(C)NC(=O)c1cc(NC(=O)Cc2cccc3[nH]ncc23)ccn1 [Example 79.2, N-(1,1-Dimethylprop-2-ynyl)-4-[[2-(1H-indazol-4-yl)acetyl]amino]pyridine-2-carboxamide] | 211% | –
33 | C#CC(C)(C)NC(=O)c1cc(NC(=O)Cc2cccc3cc[nH]c23)ccn1 [Example 79.3, N-(1,1-Dimethylprop-2-ynyl)-4-[[2-(1H-indol-7-yl)acetyl]amino]pyridine-2-carboxamide] | 64% | 240 nM
34 | N#CC1(NC(=O)c2cccc(NC(=O)Cc3cc(Cl)ccc3O)c2)CCOCC1 [Example 80, 3-[[2-(5-Chloro-2-hydroxy-phenyl)acetyl]amino]-N-(4-cyanotetrahydropyran-4-yl) benzamide] | 130% | –
35 | CC(C)(C#N)NC(=O)c1cc(NC(=O)Cc2cc(F)ccc2O)ccn1 [Example 81, N-(1-Cyano-1-methyl-ethyl)-4-[[2-(5-fluoro-2-hydroxy-phenyl)acetyl]amino] pyridine-2-carboxamide] | 151% | 370 nM
36 | CC(C#N)(CO)NC(=O)c1cc(NC(=O)Cc2cc(F)ccc2O)ccn1 (stereo not shown) [Example 81.1, N-(1-Cyano-2-hydroxy-1-methyl-ethyl)-4-[[2-(5-fluoro-2-hydroxy-phenyl)acetyl]amino] pyridine-2-carboxamide] | 108% | –
